Assay results published in ChEMBL document CHEMBL4052658, “BACE1 inhibitory activity and molecular docking analysis of meroterpenoids from Sargassum serratifolium” (Bioorg Med Chem, 2017).
Activity calls are given as the source filed them. No cut-off for these calls is given here.

Experiments:
Acetylcholinesterase = Acetylcholinesterase (Electrophorus electricus, UniProt O42275); assay: Inhibition of electric eel AChE using acetylthiocholine iodide as substrate incubated for 15 mins by spectrophotometric analysis
Beta-secretase 1 [1] = target: T1, Beta-secretase 1 (Homo sapiens, UniProt P56817); assay: Inhibition of recombinant human BACE1 using Rh-EVNLDAEFK-Quencher as substrate after 60 mins by FRET assay
Cholinesterase = Cholinesterase (Equus caballus, UniProt P81908); assay: Inhibition of equine serum BChE using butyrylthiocholine chloride as substrate incubated for 15 mins by spectrophotometric analysis
Beta-secretase 1 [2] = target: T1, Beta-secretase 1; assay: Mixed type inhibition of recombinant human BACE1 using Rh-EVNLDAEFK-Quencher as substrate after 60 mins by Dixon plot analysis
Beta-secretase 1 [3] = target: T1, Beta-secretase 1; assay: Noncompetitive inhibition of recombinant human BACE1 using Rh-EVNLDAEFK-Quencher as substrate after 60 mins by Dixon plot analysis
Beta-secretase 1 [4] = target: T1, Beta-secretase 1; assay: Noncompetitive inhibition of recombinant human BACE1 using Rh-EVNLDAEFK-Quencher as substrate after 60 mins by Lineweaver-Burk plot analysis

Sequence of Acetylcholinesterase (O42275 whole entry): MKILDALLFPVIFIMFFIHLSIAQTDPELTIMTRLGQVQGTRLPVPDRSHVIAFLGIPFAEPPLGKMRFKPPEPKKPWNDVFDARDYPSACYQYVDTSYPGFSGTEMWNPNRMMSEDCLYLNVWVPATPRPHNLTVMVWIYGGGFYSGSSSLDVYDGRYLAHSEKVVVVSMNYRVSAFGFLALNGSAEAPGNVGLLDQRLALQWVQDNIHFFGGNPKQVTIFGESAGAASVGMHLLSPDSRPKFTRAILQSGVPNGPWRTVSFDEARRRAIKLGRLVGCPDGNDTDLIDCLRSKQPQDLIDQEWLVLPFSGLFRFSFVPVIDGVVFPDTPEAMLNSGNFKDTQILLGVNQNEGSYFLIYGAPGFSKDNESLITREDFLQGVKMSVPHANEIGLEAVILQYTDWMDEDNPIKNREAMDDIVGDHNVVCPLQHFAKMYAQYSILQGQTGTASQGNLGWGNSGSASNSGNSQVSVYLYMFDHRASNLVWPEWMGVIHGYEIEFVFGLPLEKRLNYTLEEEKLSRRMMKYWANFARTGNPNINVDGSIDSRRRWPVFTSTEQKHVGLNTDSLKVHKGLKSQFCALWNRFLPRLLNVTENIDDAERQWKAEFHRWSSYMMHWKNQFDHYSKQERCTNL
Sequence of Cholinesterase (P81908 whole entry): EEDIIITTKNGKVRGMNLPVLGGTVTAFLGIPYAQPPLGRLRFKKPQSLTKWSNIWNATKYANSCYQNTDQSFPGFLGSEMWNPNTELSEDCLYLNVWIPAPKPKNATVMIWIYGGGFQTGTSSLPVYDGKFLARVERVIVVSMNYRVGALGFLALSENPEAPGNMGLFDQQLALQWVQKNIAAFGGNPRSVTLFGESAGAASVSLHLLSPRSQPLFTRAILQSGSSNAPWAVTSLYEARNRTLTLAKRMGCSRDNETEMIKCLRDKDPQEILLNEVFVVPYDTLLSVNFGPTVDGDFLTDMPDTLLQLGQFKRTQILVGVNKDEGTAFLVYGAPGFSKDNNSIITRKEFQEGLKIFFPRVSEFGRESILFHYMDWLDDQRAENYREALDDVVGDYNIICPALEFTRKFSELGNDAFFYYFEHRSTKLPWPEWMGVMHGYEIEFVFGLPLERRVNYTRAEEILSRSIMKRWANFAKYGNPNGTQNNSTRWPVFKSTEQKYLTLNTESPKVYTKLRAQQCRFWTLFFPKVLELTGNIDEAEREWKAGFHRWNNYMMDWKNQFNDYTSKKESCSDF
T1 sequence (P56817 whole entry): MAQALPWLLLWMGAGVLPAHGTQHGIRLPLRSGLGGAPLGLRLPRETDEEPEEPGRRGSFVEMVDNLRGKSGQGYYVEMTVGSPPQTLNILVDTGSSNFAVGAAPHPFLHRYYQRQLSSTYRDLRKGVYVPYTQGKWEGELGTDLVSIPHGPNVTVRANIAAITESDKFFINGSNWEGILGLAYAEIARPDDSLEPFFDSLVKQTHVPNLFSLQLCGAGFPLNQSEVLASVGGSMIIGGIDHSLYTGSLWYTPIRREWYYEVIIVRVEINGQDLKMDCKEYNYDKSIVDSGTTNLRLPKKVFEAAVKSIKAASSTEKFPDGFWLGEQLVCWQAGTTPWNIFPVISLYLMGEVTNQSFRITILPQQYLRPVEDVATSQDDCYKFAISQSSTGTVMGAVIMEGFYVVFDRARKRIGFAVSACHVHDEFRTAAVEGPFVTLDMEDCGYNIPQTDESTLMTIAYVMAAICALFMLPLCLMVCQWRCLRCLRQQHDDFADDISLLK

SMILES	IC50 (Acetylcholinesterase) [µM]	IC50 (Beta-secretase 1 [1]) [µM]	IC50 (Cholinesterase) [µM]	Ki (Beta-secretase 1 [2]) [µM]	Ki (Beta-secretase 1 [3]) [µM]	inhibition (Beta-secretase 1 [4])
COc1ccc2cc3[n+](cc2c1OC)CCc1cc2c(cc1-3)OCO2 [BERBERINE]	1.6	–	–	–	–	–
CC(C)=CCC/C(=C/CC/C(C)=C/CC/C(C)=C/Cc1cc(O)cc(C)c1O)C(=O)O [SARGAHYDROQUINOIC ACID]	124	4.4	15.2	1.6	–	–
CC(C)=CCC/C(=C/CC/C(C)=C/CC/C(C)=C/CC1=CC(=O)C=C(C)C1=O)C(=O)O	69.3	–	10.5	4	–	–
CC(C)=CCC/C(=C/CC/C(C)=C/CCC1(C)C=Cc2cc(O)cc(C)c2O1)C(=O)O (stereo not drawn)	97.3	7	9.4	–	2.9	Active
